Data from patent publication US12509451B2, “Heteroaryl amide inhibitors of CD38” (NAPA THERAPEUTICS LTD., priority 2020, dated 2025).

Legend:
[1] = target: T1, recombinant human CD38 Protein (Homo sapiens, UniProt P28907); test: Fluorescence-based NAD+ hydrolase activity assay with human recombinant CD38 protein (Assay 3); assay type: biochemical; conditions: read-out: Assay 3 Arithmetic mean IC50
T1 construct: purchased R&D System
T1 sequence (P28907 1-300): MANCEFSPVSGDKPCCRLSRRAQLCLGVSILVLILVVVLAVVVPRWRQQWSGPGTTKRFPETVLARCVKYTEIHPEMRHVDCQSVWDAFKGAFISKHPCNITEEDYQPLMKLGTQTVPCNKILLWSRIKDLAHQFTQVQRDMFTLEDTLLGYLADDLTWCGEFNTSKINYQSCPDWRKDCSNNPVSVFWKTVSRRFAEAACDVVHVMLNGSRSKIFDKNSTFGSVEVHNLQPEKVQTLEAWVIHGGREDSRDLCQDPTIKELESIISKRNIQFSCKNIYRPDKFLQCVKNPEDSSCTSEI
Experimental: This protocol was modified from the following references (Muller et al. (1983); (Schultz et al. (2018); (Matalonga et al. (2017); and de Oliveira et al. (2018), supra.
(§1) NAD+ hydrolase activity of the human recombinant CD38 protein treated with test compounds was measured using a fluorescence-based assay. Briefly, recombinant human CD38 Protein (R&D System) was resuspended in 44 μl/well of Sucrose-Tris Buffer (Sucrose 0.25 M, Tris pH 7.4 40 mM) and plated in a 96-well black plate (CORNING) at a density of 10 ng/well.
Each test compound was received in a powder state and dissolved in DMSO as a 25 mM stock solution. Each test compound was serially diluted in order to generate a dose-response curve. The dilution series of each test compound in DMSO was prepared at 50× the concentrations to be assayed. Each test compound was diluted to generate a 5-fold dilution series of 8 concentrations from 20 μM to 0.256 nM in order to assay 8 final concentrations ranging from ranging from 400 nM to 25.6 pM. One μl of the 50× concentration compound series was added to each well of the plate containing 10 ng protein in Sucrose-Tris buffer.
The reaction was started adding nicotinamide 1,N^6-etheno-adenine dinucleotide (Sigma Aldrich) to reach a final concentration of 80 µM. The samples were excited at 321-15 nm and the emission of fluorescence was measured at 410-20 nm at 37° C. every minute for 1 hr in a Clariostar® microplate reader (BMG LABTECH). NAD+ hydrolase activity was calculated as the slope of the linear portion of the fluorescence-time curve using the MARS data analysis software (BMG LABTECH). The data were uploaded in the Collaborative Drug Design (CDD) Software and for each compound the IC50 was calculated by the software. […] For each plate, the z-factor was also calculated as a plate quality using the CDD software.

[2] = target: T1, recombinant human CD38 Protein; test: Fluorescence-based NAD+ cyclase activity assay with human recombinant CD38 protein (Assay 2); assay type: biochemical; conditions: read-out: Assay 2 Arithmetic mean IC50
Experimental: This protocol was modified from the de Oliveira et al., 2018 reference, supra.
as §1, with “cyclase” for “hydrolase”, “125” for “10”
Each test compound was received in a powder state and dissolved in DMSO as a 25 mM stock solution. Each test compound was serially diluted in order to generate a dose-response curve. The dilution series of each test compound in DMSO was prepared at 50 times the concentrations to be assayed. Each test compound was diluted to generate a 5-fold dilution series of 8 concentrations from 100 μM to 32 nM in order to assay 8 final concentrations ranging from 2 μM to 0.64 nM. One μl of the 50× concentration compound series was added to each well of the plate containing 125 ng of protein in Sucrose-Tris buffer.
The reaction was started adding nicotinamide guanine dinucleotide (NGD+) (Sigma Aldrich) to reach a final concentration of 150 µM. The samples were excited at 337-15 nm, and the emission of fluorescence was measured at 442-20 nm at 37° C. every minute for 1 hr in a Clariostar microplate reader (BMG LABTECH). NAD+ cyclase activity was calculated as the slope of the linear portion of the fluorescence-time curve using the MARS data analysis software (BMG LABTECH). The data were uploaded in the Collaborative Drug Design (CDD) Software, and for each compound the IC50 was calculated by the software. For each plate, the z-factor was also calculated as a plate quality using the CDD software.

Structure (SMILES)	IC50 [1] [nM]	IC50 [2] [nM]
CNC(=O)c1ccc(NC(=O)c2cc(C)cc(-n3ccnc3)n2)cn1 [Compound 57]	< 1	1 to 50
Cc1ccc(-n2ccnc2)nc1C(=O)Nc1cccnc1 [Compound 59, 6-(1H-imidazol-1-yl)-3-methyl-N-(pyridin-3-yl)picolinamide]	1 to 50	51 to 1000
O=C(Nc1cccnc1)c1ccc(F)c(-n2ccnc2)n1 [Compound 61]	1 to 50	1000 to 10000
O=C(Nc1cccnc1)c1nc(-n2ccnc2)ccc1F [Compound 62]	1 to 50	1000 to 10000
Nc1cc(C(=O)Nc2cccnc2)nc(-n2ccnc2)c1 [Compound 67]	1 to 50	51 to 1000
